Legend:
Type in all cases: cell-based, cats
[1] = tested on: biofilms representative of feline dental plaque; test: Feline plate biofilm assay (PBA): biomass quantification (crystal violet assay); conditions: 48 hours biofilm, OD595, extracts at 500 μg/ml, vs no active control
Description: (§1) The assay requires fresh supragingival feline dental plaque and saliva for inoculation. The inoculum consists of pooled dental plaque and unfiltered saliva sampled from a group of 18 cats, varying in age, breed and oral health status.
(§2) The plaque and saliva were resuspended in artificial saliva to form the inoculum of approximately 10% plaque and 30% saliva.
(§3) The plate biofilm assay (PBA) utilises a 24 well plate format in which biofilms, representative of feline dental plaque, are grown on hydroxyapatite (HA) discs. Prior to being introduced to the 24 well assay plate, each HA disc is preconditioned for 2 hours in a solution of 50% filter sterilised feline saliva in artificial feline saliva. The preconditioning step stimulates the formation of a salivary pellicle on the HA disc surface. […] Each HA disc, with the exception of those being used for biomass quantification, is placed into 500 μl PBS and vortex mixed for 30 seconds to remove biofilm growth from the disc into solution. […] Biofilm-covered HA discs that are being used for biomass quantification are removed from the 24 well assay plate and used directly in the crystal violet assay.
The total amount of biofilm grown on the HA discs was quantified using the crystal violet staining method. Biomass was represented as being directly proportional to the OD reading at 595 nm (OD595) of the samples compared to controls. […]

[2] = tested on: Trypsin-like protease activity; test: Feline plate biofilm assay (PBA): protease activity (liquid BAPNA assay); conditions: 48 hours biofilm, extracts at 500 μg/ml, vs no active control
Description: as §1, §2, §3
Trypsin-like protease activity was measured using the liquid BAPNA assay, a colourimetric assay in which the amount of trypsin present in a sample is directly proportional to the intensity of the colour developed. […]

[3] = tested on: Aerobes; test: Feline plate biofilm assay (PBA): bacterial viable counts, aerobes; conditions: 48 hours biofilm, extracts at 500 μg/ml, vs no active control
Description: as §1, §2
as §3, with “saliva.” for “saliva. The preconditioning step stimulates the formation of a salivary pellicle on the HA disc surface.”
(§4) Viable numbers of bacteria were quantified using Columbia blood agar plates supplemented with haemin and menadione. Aerobes were counted after incubation for 2 days and anaerobes, including black pigmenting colonies (BPC), were counted after incubation at appropriate conditions for 9 days. […]

[4] = tested on: anaerobes; test: Feline plate biofilm assay (PBA): bacterial viable counts, anaerobes; conditions: 48 hours biofilm, extracts at 500 μg/ml, vs no active control
Description: as §1, §2
as §3, with “saliva.” for “saliva. The preconditioning step stimulates the formation of a salivary pellicle on the HA disc surface.”
as §4

[5] = tested on: black pigmenting colonies (BPC); test: Feline plate biofilm assay (PBA): bacterial viable counts, black pigmenting colonies; conditions: 48 hours biofilm, extracts at 500 μg/ml, vs no active control
Description: as §1, §2
as §3, with “saliva.” for “saliva. The preconditioning step stimulates the formation of a salivary pellicle on the HA disc surface.”
as §4

[H]/N=C(\N/C(=N/[H])NCCCCCCNC(=N)NC(=N)Nc1ccc(Cl)cc1)Nc1ccc(Cl)cc1 [Chlorhexidine, chlorhexidine]
Biomass (% reduction) [1]: 79.0%
Protease (% reduction) [2]: 90.0%
Aerobe (Log 10 reduction) [3]: 1.91 Log 10
Anaerobe (Log 10 reduction) [4]: 2.16 Log 10
BPC (Log 10 reduction) [5]: 4.86 Log 10

— US20100061943A1, “ORAL HEALTH COMPOSITION COMPRISING ALCHEMILLA VULGARIS” (MARS INCORPORATED, priority 2006, published 2010)
